The supplement of paper PMC11061612

Legend:
[1] = test system: SIMA (Neuroblastoma); assay: Bliss excess, mean over the matrix (fraction); higher = more synergy
Outline: (§1)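 After 24 hours at 37°C and 5% CO2 in 1536-well plates, cells in DMEM/F12 or RPMI plus 10% FBS received two-drug dose matrices for 72 hours. Viability came from CellTiter-Glo 2.0 luminescence and was scaled as inhibition, anchored at 0 by vehicle wells and at 1 by blank wells. Combination Emax is taken as the second-highest inhibition in the matrix, and Bliss excess as the observed combination effect less EA + EB − EA·EB, with EA and EB the single-agent effects.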

[2] = test system: SW1116 (Colorectal Carcinoma); assay: combination Emax (second highest fraction inhibited in the dose matrix, 72 h); higher = more inhibition; extreme values may be limits of the assay
Outline: as §1

[3] = test system: RKO (Colorectal Carcinoma); assay: as above
Outline: as §1

[4] = test system: SH-4 (Melanoma); assay: as above
Outline: as §1

[5] = test system: SUP-T1 (T-Lymphoblastic Leukemia); assay: as above
Outline: as §1

[6] = test system: EN (Endometrial Carcinoma); assay: as above
Outline: as §1

[7] = test system: LoVo (Colorectal Carcinoma); assay: as above
Outline: as §1

[8] = test system: TE-4 (Esophageal Squamous Cell Carcinoma); assay: as above
Outline: as §1

[9] = test system: PCI-30 (Head and Neck Carcinoma); assay: as above
Outline: as §1

[10] = test system: SIMA (Neuroblastoma); assay: as above
Outline: as §1
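Throughout, for Bliss excess, mean over the matrix: after 72 h of two-drug dosing.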

SMILES	Bliss excess [1]	combination Emax [2]	combination Emax [3]	combination Emax [4]	combination Emax [5]	combination Emax [6]	combination Emax [7]	combination Emax [8]	combination Emax [9]	combination Emax [10]
Cc1c2c(nn1C)CSCc1cc(n(C)n1)CSc1cc(c3ccccc3c1)OCCCc1c(C(=O)O)n(C)c3c-2c(Cl)ccc13 [AZD5991] + C[C@@H]1COCCN1C2=NC(=NC(=C2)C3(CC3)[S@](=N)(=O)C)C4=C5C=CNC5=NC=C4 [AZD6738] (first compound max 1 µM, 7x7, partner max 10 µM)	0.024	0.281	0.85	0.422	0.741	0.853	0.889	0.773	0.603	0.98
C=CCn1c(=O)c2cnc(Nc3ccc(N4CCN(C)CC4)cc3)nc2n1-c1cccc(C(C)(C)O)n1 [AZD1775] + C1CN(CCC1(C(=O)N[C@@H](CCO)C2=CC=C(C=C2)Cl)N)C3=NC=NC4=C3C=CN4 [Capivasertib] (first compound max 3 µM, partner max 3 µM)	-0.0416	0.48	0.886	0.715	0.916	0.715	0.937	0.88	0.477	0.94
Cc1c2c(nn1C)CSCc1cc(n(C)n1)CSc1cc(c3ccccc3c1)OCCCc1c(C(=O)O)n(C)c3c-2c(Cl)ccc13 [AZD5991] + C[C@@H](Nc1cc(F)cc(F)c1)c1cc(C(=O)N(C)C)cc2c(=O)cc(N3CCOCC3)oc12 [AZD8186] (first compound max 1 µM, 7x7, partner max 3 µM)	-0.0084	0.17	0.277	0.332	0.279	0.558	0.732	0.377	0.264	0.218
CN(CCO)CC[C@H](CSc1ccccc1)Nc1ccc(S(=O)(=O)NC(=O)c2ccc(N3CCC([C@@H](O)c4ccccc4-c4ccc(Cl)cc4)CC3)cc2)cc1S(=O)(=O)C(F)(F)F [AZD4320] + CCN(CCO)CCCOc1ccc2c(Nc3cc(CC(=O)Nc4cccc(F)c4)[nH]n3)ncnc2c1 [AZD2811] (first compound max 1 µM, 7x7, partner max 1 µM)	0.0814	0.144	0.194	0.181	0.545	0.381	0.317	0.0998	0.284	0.971
Cc1c2c(nn1C)CSCc1cc(n(C)n1)CSc1cc(c3ccccc3c1)OCCCc1c(C(=O)O)n(C)c3c-2c(Cl)ccc13 [AZD5991] + CN(C)CCCOc1ccc(-c2ccc3ncc4c(c3c2)n(C2CCOCC2)c(=O)n4C)cn1 [AZD0156] (first compound max 1 µM, 7x7, partner max 1 µM)	0.0197	0.173	0.225	0.316	0.371	0.572	0.496	0.481	0.232	0.398
Cc1c2c(nn1C)CSCc1cc(n(C)n1)CSc1cc(c3ccccc3c1)OCCCc1c(C(=O)O)n(C)c3c-2c(Cl)ccc13 [AZD5991] + C1CN(CCC1(C(=O)N[C@@H](CCO)C2=CC=C(C=C2)Cl)N)C3=NC=NC4=C3C=CN4 [Capivasertib] (first compound max 1 µM, 7x7, partner max 3 µM)	-0.0195	0.102	0.292	0.332	0.503	0.848	0.625	0.81	0.237	0.176
CN(CCO)CC[C@H](CSc1ccccc1)Nc1ccc(S(=O)(=O)NC(=O)c2ccc(N3CCC([C@@H](O)c4ccccc4-c4ccc(Cl)cc4)CC3)cc2)cc1S(=O)(=O)C(F)(F)F [AZD4320] + CN(C)CCCOc1ccc(-c2ccc3ncc4c(c3c2)n(C2CCOCC2)c(=O)n4C)cn1 [AZD0156] (first compound max 1 µM, 7x7, partner max 1 µM)	-0.14	0.191	0.122	0.16	0.385	0.218	0.287	0.0906	0.158	0.848
Cc1c2c(nn1C)CSCc1cc(n(C)n1)CSc1cc(c3ccccc3c1)OCCCc1c(C(=O)O)n(C)c3c-2c(Cl)ccc13 [AZD5991] + CC1(C)CCC(CN2CCN(c3ccc(C(=O)NS(=O)(=O)c4ccc(NCC5CCOCC5)c([N+](=O)[O-])c4)c(Oc4cnc5[nH]ccc5c4)c3)CC2)=C(c2ccc(Cl)cc2)C1 [Venetoclax] (first compound max 1 µM, 7x7, partner max 1 µM)	0.107	0.145	0.225	0.642	0.304	0.608	0.147	0.261	0.218	0.46
Cc1c2c(nn1C)CSCc1cc(n(C)n1)CSc1cc(c3ccccc3c1)OCCCc1c(C(=O)O)n(C)c3c-2c(Cl)ccc13 [AZD5991] + C=CCn1c(=O)c2cnc(Nc3ccc(N4CCN(C)CC4)cc3)nc2n1-c1cccc(C(C)(C)O)n1 [AZD1775] (first compound max 1 µM, partner max 1 µM)	-0.0713	0.378	0.69	0.616	0.847	0.812	0.856	0.801	0.317	0.973
Cc1c2c(nn1C)CSCc1cc(n(C)n1)CSc1cc(c3ccccc3c1)OCCCc1c(C(=O)O)n(C)c3c-2c(Cl)ccc13 [AZD5991] + CCN(CCO)CCCOc1ccc2c(Nc3cc(CC(=O)Nc4cccc(F)c4)[nH]n3)ncnc2c1 [AZD2811] (first compound max 1 µM, 7x7, partner max 1 µM)	-0.0271	0.256	0.349	0.336	0.419	0.866	0.314	0.575	0.284	0.768
CN(CCO)CC[C@H](CSc1ccccc1)Nc1ccc(S(=O)(=O)NC(=O)c2ccc(N3CCC([C@@H](O)c4ccccc4-c4ccc(Cl)cc4)CC3)cc2)cc1S(=O)(=O)C(F)(F)F [AZD4320] + Cc1cc2ncnn2cc1Nc1ncc2c(n1)n(C1CCOCC1)c(=O)n2C [AZD7648] (first compound max 1 µM, 7x7, partner max 10 µM)	0.0256	0.117	0.21	0.16	0.416	0.304	0.565	0.173	0.178	0.862
CN(C)CCCOc1ccc(-c2ccc3ncc4c(c3c2)n(C2CCOCC2)c(=O)n4C)cn1 [AZD0156] + O=C(c1cc(Cc2n[nH]c(=O)c3ccccc23)ccc1F)N1CCN(C(=O)C2CC2)CC1 [Olaparib] (first compound max 3 µM, partner max 3 µM)	0.0694	0.206	0.284	0.327	0.432	0.227	0.693	0.206	0.234	0.386
CN(CCO)CC[C@H](CSc1ccccc1)Nc1ccc(S(=O)(=O)NC(=O)c2ccc(N3CCC([C@@H](O)c4ccccc4-c4ccc(Cl)cc4)CC3)cc2)cc1S(=O)(=O)C(F)(F)F [AZD4320] + C=CCn1c(=O)c2cnc(Nc3ccc(N4CCN(C)CC4)cc3)nc2n1-c1cccc(C(C)(C)O)n1 [AZD1775] (first compound max 1 µM, partner max 1 µM)	-0.0156	0.264	0.617	0.5	0.909	0.567	0.838	0.466	0.323	1
CN(CCO)CC[C@H](CSc1ccccc1)Nc1ccc(S(=O)(=O)NC(=O)c2ccc(N3CCC([C@@H](O)c4ccccc4-c4ccc(Cl)cc4)CC3)cc2)cc1S(=O)(=O)C(F)(F)F [AZD4320] + C[C@@H]1COCCN1C2=NC(=NC(=C2)C3(CC3)[S@](=N)(=O)C)C4=C5C=CNC5=NC=C4 [AZD6738] (first compound max 1 µM, 7x7, partner max 10 µM)	0.0068	0.375	0.85	0.409	0.858	0.69	0.838	0.691	0.653	1
CN(CCO)CC[C@H](CSc1ccccc1)Nc1ccc(S(=O)(=O)NC(=O)c2ccc(N3CCC([C@@H](O)c4ccccc4-c4ccc(Cl)cc4)CC3)cc2)cc1S(=O)(=O)C(F)(F)F [AZD4320] + C1CN(CCC1(C(=O)N[C@@H](CCO)C2=CC=C(C=C2)Cl)N)C3=NC=NC4=C3C=CN4 [Capivasertib] (first compound max 1 µM, 7x7, partner max 3 µM)	-0.0435	0.139	0.272	0.129	0.505	0.576	0.633	0.511	0.191	0.814
